Literature values, collected in patent US5882682A (Merck & Co., Inc., priority 1997, dated 1999).
In brackets after ≈: the same amount, converted by molar mass.

Legend:
[1] = humans

Row | aqueous solubility (in words) | Structure (SMILES) | reduction of serum cholesterol levels [1] | aqueous solubility (water) [µg/mL]
1 | poorly aqueous soluble | COc1ccc2c(c1)c(CC(=O)O)c(C)n2C(=O)c1ccc(Cl)cc1 [indomethacin] | – | –
2 | – | CCC(C)(C)C(=O)O[C@H]1C[C@@H](C)C=C2C=C[C@H](C)[C@H](CC[C@@H]3C[C@@H](O)CC(=O)O3)[C@H]21 [simvastatin] | highly effective | –
3 | moderately soluble | CC(=O)Nc1ccc(O)cc1 [acetominophren, acetaminophen] | – | –
4 | – | CC[C@H](C)C(=O)O[C@H]1C[C@@H](C)C=C2C=C[C@H](C)[C@H](CC[C@@H]3C[C@@H](O)CC(=O)O3)[C@H]21 [lovastatin] | highly effective | 0.44 (≈ 1.09 µM)
